Measured values reported in ChEMBL document CHEMBL1201862, “PubChem BioAssay data set” (2004).
Calls of active or inactive are those of the source.

Legend:
Fatty acid synthase [1] = biological target: T1, Fatty acid synthase (Homo sapiens, UniProt P49327); assay: inhibition of human FAS-TE enzyme activity – biochemical, endpoint fluorescence intensity, uHTS hits, dose response (AID 624327); assay type: functional;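 also: fluorescence from hydrolysis of an O-methyl fluorescein acyl ester substrate by the enzyme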
T1 sequence (P49327 whole entry): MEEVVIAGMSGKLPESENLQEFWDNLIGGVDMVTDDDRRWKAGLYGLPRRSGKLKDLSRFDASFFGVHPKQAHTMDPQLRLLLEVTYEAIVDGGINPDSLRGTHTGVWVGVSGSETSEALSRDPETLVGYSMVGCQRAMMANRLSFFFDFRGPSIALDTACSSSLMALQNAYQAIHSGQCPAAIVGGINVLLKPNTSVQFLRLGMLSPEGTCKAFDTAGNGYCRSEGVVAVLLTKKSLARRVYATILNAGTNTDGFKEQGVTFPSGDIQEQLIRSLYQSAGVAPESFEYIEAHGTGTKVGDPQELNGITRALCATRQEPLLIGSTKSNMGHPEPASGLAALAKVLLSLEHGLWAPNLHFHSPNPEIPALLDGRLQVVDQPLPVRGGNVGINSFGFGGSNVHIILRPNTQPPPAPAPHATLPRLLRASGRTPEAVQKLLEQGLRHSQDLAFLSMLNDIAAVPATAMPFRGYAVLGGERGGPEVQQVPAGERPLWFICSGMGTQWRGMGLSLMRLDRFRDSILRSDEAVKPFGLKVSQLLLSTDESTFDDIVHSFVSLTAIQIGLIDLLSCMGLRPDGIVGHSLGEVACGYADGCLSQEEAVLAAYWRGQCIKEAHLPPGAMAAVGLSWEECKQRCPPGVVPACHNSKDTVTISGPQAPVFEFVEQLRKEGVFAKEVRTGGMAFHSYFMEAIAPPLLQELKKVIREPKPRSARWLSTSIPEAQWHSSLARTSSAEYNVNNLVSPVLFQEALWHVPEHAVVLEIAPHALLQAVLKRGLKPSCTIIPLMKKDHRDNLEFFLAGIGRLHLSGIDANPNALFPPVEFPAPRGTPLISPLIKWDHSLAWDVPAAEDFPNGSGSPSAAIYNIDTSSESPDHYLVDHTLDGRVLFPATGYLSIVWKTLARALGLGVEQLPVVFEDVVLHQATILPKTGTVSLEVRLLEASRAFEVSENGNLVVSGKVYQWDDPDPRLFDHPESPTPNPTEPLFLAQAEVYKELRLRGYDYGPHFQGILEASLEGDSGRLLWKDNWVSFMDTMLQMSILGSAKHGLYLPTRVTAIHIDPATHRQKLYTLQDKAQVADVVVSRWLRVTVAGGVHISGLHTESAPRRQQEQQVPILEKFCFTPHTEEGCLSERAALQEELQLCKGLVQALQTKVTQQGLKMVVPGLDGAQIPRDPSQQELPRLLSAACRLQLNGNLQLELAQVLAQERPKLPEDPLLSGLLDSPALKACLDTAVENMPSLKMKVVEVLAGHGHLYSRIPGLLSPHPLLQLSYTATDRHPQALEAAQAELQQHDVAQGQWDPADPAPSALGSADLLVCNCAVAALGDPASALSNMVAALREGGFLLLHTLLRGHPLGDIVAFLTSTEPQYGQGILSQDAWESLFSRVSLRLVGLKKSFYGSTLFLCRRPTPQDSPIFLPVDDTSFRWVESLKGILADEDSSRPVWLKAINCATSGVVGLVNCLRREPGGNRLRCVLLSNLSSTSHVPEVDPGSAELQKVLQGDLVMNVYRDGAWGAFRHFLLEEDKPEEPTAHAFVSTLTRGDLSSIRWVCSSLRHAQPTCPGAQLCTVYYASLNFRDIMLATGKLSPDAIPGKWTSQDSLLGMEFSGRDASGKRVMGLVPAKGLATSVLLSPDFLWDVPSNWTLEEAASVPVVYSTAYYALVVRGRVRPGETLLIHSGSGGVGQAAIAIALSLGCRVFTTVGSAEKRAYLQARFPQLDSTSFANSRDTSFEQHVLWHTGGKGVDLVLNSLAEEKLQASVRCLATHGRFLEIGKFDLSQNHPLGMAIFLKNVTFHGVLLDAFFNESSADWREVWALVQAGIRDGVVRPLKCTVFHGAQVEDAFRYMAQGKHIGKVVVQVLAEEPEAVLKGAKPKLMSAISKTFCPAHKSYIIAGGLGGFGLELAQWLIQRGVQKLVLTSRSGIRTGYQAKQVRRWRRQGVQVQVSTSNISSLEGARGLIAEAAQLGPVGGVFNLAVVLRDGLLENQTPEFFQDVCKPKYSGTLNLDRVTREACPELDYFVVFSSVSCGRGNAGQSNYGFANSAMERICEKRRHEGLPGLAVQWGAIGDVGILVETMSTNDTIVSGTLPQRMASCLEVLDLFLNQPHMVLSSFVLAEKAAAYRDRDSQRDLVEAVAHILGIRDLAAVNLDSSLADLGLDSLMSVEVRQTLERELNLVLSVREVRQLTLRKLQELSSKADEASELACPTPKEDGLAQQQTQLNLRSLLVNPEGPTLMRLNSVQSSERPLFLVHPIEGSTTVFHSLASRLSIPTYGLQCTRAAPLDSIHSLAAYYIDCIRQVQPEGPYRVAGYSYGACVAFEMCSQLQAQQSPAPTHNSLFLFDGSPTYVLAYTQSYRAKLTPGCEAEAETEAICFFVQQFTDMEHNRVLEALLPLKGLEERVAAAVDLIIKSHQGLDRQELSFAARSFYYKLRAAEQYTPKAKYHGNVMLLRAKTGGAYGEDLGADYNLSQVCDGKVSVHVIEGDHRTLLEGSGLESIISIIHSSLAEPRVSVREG

[2] = biological target: G-protein coupled receptor 55 (Homo sapiens, UniProt Q9Y2T6); assay: inhibition of LPI-stimulated GPR55 beta-arrestin translocation – imaging, U2OS, beta-arrestin-GFP, LPI agonist, primary screen (AID 2013); assay type: functional;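 also: antagonist potency measured as reduced agonist-driven arrestin aggregation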
G-protein coupled receptor 55, sequence (Q9Y2T6 whole entry): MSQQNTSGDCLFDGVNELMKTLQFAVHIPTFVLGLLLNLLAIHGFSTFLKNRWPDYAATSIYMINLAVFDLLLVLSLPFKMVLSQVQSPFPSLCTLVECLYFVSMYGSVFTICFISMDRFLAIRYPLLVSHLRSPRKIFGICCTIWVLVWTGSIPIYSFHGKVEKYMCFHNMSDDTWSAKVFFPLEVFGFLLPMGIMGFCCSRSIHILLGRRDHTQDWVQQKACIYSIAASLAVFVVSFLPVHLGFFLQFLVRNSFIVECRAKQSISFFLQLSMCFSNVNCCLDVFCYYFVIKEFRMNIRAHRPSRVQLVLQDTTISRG

[3] = biological target: T2, Replicative DNA helicase DnaB (Mycobacterium tuberculosis, UniProt P9WMR3); assay: DnaB intein splicing inhibitors, dose response, biochemical, cell-free fluorescence (AID 449749); assay type: functional
T2 sequence (P9WMR3 whole entry): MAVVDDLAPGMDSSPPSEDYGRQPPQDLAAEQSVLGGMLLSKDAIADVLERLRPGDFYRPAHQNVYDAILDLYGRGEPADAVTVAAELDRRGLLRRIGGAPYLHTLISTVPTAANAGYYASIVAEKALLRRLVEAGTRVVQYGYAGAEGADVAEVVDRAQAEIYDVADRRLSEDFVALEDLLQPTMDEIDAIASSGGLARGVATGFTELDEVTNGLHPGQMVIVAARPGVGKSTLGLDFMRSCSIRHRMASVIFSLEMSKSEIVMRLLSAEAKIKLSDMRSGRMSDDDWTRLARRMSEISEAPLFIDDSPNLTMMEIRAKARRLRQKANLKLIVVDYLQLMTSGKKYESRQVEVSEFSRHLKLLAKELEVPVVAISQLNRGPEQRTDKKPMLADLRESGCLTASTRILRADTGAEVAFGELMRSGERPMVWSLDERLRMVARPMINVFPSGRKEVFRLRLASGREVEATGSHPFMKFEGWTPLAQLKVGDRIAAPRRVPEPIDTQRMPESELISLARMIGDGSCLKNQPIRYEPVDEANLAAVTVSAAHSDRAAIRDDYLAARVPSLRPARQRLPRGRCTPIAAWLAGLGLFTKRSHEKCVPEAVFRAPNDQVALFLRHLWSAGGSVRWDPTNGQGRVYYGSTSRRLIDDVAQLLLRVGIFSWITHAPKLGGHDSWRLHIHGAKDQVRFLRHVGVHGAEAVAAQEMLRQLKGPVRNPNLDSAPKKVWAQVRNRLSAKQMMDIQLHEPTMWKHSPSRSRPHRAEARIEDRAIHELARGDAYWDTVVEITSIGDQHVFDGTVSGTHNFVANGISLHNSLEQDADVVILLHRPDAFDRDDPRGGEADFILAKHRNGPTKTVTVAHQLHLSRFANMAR

Fatty acid synthase [4] = biological target: T1, Fatty acid synthase; assay: inhibition of human FAS-TE enzyme activity – biochemical, kinetic fluorescence intensity, dose response (AID 624326); assay type: functional;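 also: rate of fluorescence rise from hydrolysis of a fluorogenic O-methyl fluorescein ester substrate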
Protein RecA = biological target: T3, Protein RecA (Mycobacterium tuberculosis, UniProt P9WHJ3); assay: Fluorescence Cell-Free Homogeneous Dose Retest to Identify Inhibitors of RecA-Intein Splicing Activity. [Related pubchem assays (depositor defined):AID2097, AID2223, AID489010, AID492950]; assay type: functional
T3 sequence (P9WHJ3 whole entry): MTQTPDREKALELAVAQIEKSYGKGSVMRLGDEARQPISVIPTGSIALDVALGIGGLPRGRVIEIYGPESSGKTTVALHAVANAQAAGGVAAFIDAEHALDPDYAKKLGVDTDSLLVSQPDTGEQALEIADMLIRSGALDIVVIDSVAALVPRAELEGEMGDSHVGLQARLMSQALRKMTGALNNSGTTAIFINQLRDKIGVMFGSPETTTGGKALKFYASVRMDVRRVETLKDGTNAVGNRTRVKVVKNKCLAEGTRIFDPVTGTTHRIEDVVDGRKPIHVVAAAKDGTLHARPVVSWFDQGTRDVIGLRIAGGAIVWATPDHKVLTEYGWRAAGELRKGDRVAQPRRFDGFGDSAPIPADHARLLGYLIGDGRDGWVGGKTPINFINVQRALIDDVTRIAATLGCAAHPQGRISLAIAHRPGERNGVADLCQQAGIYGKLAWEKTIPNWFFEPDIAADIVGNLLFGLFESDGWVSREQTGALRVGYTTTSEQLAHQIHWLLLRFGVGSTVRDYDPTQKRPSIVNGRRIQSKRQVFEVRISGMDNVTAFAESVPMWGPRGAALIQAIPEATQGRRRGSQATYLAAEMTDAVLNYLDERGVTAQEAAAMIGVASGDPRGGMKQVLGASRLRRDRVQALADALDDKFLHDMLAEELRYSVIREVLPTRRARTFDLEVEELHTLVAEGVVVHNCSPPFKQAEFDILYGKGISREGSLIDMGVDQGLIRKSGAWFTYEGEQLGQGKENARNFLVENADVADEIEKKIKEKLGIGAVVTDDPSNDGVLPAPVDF

Exodeoxyribonuclease V = biological target: T4, Exodeoxyribonuclease V (Escherichia coli (strain K12), UniProt P04993+P07648+P08394); assay: RecBCD inhibition via phage-restricted bacterial growth – absorbance, V66 E. coli, mutant T4 phage, counter-screen for AddAB inhibitor project, dose response (AID 492957); assay type: functional, cell-based, Escherichia coli str. K-12 substr. MG1655
T4 sequence (P04993 whole entry): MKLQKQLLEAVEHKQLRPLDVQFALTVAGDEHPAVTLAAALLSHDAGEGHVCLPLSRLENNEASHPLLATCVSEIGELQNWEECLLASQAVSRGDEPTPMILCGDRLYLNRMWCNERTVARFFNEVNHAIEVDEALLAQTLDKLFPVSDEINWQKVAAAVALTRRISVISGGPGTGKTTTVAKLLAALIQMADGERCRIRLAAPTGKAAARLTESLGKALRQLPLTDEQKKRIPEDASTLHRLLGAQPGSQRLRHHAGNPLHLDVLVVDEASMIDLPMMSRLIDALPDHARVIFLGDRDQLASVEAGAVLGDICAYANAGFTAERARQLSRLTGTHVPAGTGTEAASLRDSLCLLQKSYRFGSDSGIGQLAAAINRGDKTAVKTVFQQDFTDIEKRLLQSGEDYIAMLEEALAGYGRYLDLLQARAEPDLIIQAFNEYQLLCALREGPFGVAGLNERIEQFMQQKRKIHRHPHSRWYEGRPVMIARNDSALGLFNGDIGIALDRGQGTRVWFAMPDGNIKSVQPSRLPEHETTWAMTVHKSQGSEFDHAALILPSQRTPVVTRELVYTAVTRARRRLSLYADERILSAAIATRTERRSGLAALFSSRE
T4 sequence (P07648 whole entry): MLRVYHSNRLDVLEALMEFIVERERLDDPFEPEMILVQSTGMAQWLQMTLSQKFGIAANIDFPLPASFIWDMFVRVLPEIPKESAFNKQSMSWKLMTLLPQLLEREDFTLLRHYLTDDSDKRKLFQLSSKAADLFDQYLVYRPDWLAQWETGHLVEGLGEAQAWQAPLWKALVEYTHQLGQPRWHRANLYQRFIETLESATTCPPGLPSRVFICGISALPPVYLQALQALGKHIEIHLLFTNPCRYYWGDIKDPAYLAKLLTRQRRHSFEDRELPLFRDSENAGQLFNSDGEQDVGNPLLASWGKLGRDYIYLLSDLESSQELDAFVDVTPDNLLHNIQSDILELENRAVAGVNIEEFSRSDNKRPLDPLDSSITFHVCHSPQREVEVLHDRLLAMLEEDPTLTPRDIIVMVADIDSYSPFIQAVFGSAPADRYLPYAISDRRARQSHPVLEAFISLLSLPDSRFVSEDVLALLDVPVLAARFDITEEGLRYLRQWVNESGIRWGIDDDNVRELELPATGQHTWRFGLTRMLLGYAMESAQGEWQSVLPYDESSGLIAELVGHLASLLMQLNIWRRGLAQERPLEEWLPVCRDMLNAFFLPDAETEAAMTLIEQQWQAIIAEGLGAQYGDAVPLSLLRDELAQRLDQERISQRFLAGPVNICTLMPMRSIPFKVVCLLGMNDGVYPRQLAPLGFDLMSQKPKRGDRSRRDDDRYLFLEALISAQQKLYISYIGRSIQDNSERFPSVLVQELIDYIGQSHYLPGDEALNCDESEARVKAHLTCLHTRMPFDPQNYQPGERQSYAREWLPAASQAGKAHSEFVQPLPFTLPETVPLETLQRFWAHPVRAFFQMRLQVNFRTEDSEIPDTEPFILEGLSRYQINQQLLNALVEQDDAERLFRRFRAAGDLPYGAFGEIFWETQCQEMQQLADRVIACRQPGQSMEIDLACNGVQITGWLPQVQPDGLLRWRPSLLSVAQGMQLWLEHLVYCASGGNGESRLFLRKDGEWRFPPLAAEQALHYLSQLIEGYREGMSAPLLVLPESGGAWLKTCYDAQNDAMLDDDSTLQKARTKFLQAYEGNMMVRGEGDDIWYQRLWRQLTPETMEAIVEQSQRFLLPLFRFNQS
T4 sequence (P08394 whole entry): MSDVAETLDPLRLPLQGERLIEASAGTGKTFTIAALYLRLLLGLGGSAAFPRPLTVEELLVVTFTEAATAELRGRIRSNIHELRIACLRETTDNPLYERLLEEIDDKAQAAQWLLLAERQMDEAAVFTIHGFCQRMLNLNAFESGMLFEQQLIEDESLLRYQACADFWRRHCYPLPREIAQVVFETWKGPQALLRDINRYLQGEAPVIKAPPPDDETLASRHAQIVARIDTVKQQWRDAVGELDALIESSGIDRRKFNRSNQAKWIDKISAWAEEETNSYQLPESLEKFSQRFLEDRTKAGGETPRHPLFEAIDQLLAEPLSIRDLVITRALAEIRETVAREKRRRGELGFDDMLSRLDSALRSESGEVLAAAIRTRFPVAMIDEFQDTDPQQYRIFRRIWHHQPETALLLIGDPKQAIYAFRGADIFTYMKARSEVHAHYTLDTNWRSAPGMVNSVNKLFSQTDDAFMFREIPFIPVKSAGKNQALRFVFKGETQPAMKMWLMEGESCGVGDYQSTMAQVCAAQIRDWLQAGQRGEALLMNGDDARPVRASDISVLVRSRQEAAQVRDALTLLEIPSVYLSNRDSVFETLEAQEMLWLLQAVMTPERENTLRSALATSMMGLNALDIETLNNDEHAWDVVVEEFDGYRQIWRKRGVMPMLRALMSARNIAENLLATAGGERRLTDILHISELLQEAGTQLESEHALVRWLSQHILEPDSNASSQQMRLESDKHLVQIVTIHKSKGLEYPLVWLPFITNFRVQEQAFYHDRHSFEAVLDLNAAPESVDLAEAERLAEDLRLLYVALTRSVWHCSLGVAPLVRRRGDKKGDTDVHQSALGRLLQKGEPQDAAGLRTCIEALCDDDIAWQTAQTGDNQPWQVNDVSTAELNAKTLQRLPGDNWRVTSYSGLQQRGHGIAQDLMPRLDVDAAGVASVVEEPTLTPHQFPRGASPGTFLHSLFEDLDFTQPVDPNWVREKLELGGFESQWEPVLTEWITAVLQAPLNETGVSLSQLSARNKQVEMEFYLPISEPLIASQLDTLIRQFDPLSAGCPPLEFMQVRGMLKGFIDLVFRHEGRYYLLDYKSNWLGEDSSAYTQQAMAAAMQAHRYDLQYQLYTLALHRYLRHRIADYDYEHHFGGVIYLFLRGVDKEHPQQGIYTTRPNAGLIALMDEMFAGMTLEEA

[5] = Counterscreen for AddAB inhibitors: absorbance-based bacterial cell-based high throughput dose response assay for inhibitors of bacterial viability. [Related pubchem assays (depositor defined):AID435030, AID449728, AID449731, AID488942, AID488955, AID488956]; assay type: functional
[6] = biological target: T5, Alkaline phosphatase, tissue-nonspecific isozyme (Homo sapiens, UniProt P05186); assay: potency against alkaline phosphatase TNAP – biochemical, luminescent, dose response, SAR follow-up (AID 1056)
T5 sequence (P05186 whole entry): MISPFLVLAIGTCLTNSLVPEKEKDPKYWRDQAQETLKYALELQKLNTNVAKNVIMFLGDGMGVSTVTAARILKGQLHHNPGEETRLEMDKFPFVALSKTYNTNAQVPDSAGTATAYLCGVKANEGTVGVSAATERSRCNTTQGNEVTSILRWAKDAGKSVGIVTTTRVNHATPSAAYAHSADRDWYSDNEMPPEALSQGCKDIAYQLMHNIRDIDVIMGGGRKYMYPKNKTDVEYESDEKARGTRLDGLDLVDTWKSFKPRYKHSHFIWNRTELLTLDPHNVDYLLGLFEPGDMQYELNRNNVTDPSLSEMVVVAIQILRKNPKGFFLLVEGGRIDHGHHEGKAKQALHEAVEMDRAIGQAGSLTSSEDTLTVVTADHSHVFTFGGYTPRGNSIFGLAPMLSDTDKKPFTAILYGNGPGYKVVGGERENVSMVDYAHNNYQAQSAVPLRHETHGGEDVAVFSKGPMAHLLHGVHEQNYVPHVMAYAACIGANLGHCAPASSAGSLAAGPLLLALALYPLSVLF

SMILES: O=C(Nc1ccc(Cl)cc1)C(Cl)C(=O)c1ccccc1 (stereo not drawn)
- IC50 (Fatty acid synthase [1]): 4.3 µM (active)
- IC50 [2]: 1.07 µM (active)
- AC50 [3]: 5.89 µM (active)
- IC50 (Fatty acid synthase [4]): 4.67 µM (active)
- EC50 (Protein RecA): 30.3 µM (active)

SMILES: COc1ccc(-c2cc(N3CCCC3)n3ncnc3n2)cc1
- IC50 (Exodeoxyribonuclease V): > 119 µM (inactive)
- IC50 [5]: > 119 µM (inactive)

SMILES: O=C(O)c1[nH]nc2c1COc1ccccc1-2
- IC50 [6]: 1.31 µM (active)
